Assays:
[1] = test system: Drosophila melanogaster transgenic for an mCherry:Atg8 reporter (fat body); assay: mCherry:Atg8 reporter in fat body of Drosophila L3 larvae; format: in vivo; conditions: L3 larva, 1.0 uM, 2 hours
Method: Flies with the genotype of hsFlp:pAct<CD2<Gal4, UAS-nlsGFP, r4:mCherry:Atg8a were used. Microscopic images were taken from the fat body of wandering larvae at the L3 stage. Note that in well-fed larvae at the same stage, no autophagic activity is visible. 2 hours before the test, 90-94 hours larvae were transferred onto yeast suspension (0.5 g yeast extract 2.5 ml water, homogenization and boiling). […] Larvae were cultured in this medium for 2 hours. Preparation of fat bodies was performed in PBS solution. For covering, 8:2 ratio of glycerine:PBS was used (supplemented with 10 mM Hoechst solution).
Imaging was taken with a Zeiss AxioImager Z1 fluorescence microscope, supplemented with Apotome semiconfocal setup, 400× magnification, the same exposition time.
Examining T544-1567 (inhibitor), hsFlp; pAct<CD2<Gal4, UAS-nlsGFP, r4:mCherry:Atg8a flies were crossed with animals of yw; (EP)EDTP^EY22967 genotype (the autophagy antagonist EDTP/Jumpy is clonally overexpressed in fat body).
Cells with overactivated EDTP/Jumpy are in green due to the presence of the GFP transgene. Blue colour (DAP staining) indicates the nuclei (DNA). Red dots (mCherry:Atg8) indicate autophagy structures (autophagosomes+autolysosomes). […]

[2] = test system: GFP-RFP-LC3 HeLa cell line; assay: GFP-RFP-LC3 HeLa autophagy reporter cell assay (fluorescence microscopy); format: cell-based, human; conditions: for number of red foci (autolysosomes): 10.0 μM, 6 hours, compared to negative control (DMSO)
Method: The GFP-RFP-LC3 HeLa cell line (Settembre et al, Science, 2011) was cultured in DMEM (Dulbecco's Modified Eagle's Medium, Sigma, D7777) containing 4500 mg/l glucose, 10% heat inactivated FCS (Merck), 40 μg/ml gentamycin (Hungaropharma) and 600 μg/ml G418 (Sigma, G8168). Drug candidates […]-0696, […]-7132 and […]-1567 were obtained from the ENAMINE molecule bank. 3×10^4 cells were plated onto 13 mm diameter poly-D-lysine coated coverslips in 24-well plates (Greiner) with 24 hours before the treatment. […] As controls, 0.1 and 1% DMSO, 200 nM rapamycin (autophagy inductor) and 100 nM bafilomycin A1 (an autophagy inhibitor) were used. For fluorescence microscopy, cells were fixed in 4% paraformaldehyde (Taab) and mounted in mowiol 4.88 (Polysciences) supplemented with bis-benzimide (Sigma) for nuclei staining. 5 epifluorescent pictures were taken in each condition by a BX51 microscope (Olympus) fitted with a FluoViewII camera and the AnalysisPro software (Olympus), using a 60×/1.4 oil Plan objective and the appropriate filter sets (DAPI: BP330-385/DM400/BA420; GFP: BP460-500/DM505/BP510-560; RFP: BP480-550/DM570/BA590). […] RFP: red fluorescence protein-autolysosome (mature autophagic compartment) GFP: green fluorescence protein Atg8: Autophagy-related protein 8-the most frequently used marker for autophagy Yellow: RFP and GFP (merged)-autophagosome (the primary autophagic structure)

mice (pancreas, liver) = assay: Autophagic activity in mouse organs by electron microscopy; format: in vivo; conditions: 50 uMol intraperitoneal, 2.5 hours
Method: 50 uMol of effective molecules were dissolved in 10% DMSO and were administered intraperitoneously. After 2.5 hours the animals were sacrificed and their organs removed. The organs were transferred to tissue cultivating solution.
The organs were prepared for electronmicroscopic studies by standard preparation techniques. The ultrathin slices were prepared using Reichert-Jung Ultracut-E type ultramicrotome. The slides were investigated by JEM Jeol 1011 electron microscope.

Structure (SMILES)	red dots (mCherry:Atg8 autophagy structures) in fat body [1]	number of red foci (autolysosomes) [2]	autophagic activity (autophagosomes and autolysosomes) in liver (mice (pancreas, liver))	autophagic activity (autophagosomes and autolysosomes) in pancreas (mice (pancreas, liver))	accumulation of autophagosomes (yellow foci), fusion with lysosomes blocked ([2]; 100 nM bafilomycin A1, 6 hours)	autophagy activity (autolysosome accumulation) ([2]; larger dose, 50 uM)
CC(Sc1nc2ccccc2c(=O)n1C1CCCC1)C(=O)N1CCc2ccccc21 (stereo not shown) [T558-0696]	increased number of red dots	increases the number of red foci (autolysosomes)	pronounced autophagic activity	pronounced autophagic activity	–	–
CO/C1=C\C(C)=C\[C@@H](C)[C@@H](O)[C@@H](C)C/C(C)=C/C=C/[C@H](OC)[C@@H]([C@@H](C)[C@@H](O)[C@H](C)[C@@]2(O)C[C@@H](O)[C@H](C)[C@@H](C(C)C)O2)OC1=O [Bafilomycin A1, reference compound]	–	–	–	–	yellow foci accumulate in large quantities	–
O=C1C([N-]S(=O)(=O)c2ccc([N+](=O)[O-])cc2)=C([n+]2c[nH]c3ccccc32)C(=O)c2ccccc21 [T0501-7132]	–	induces the accumulation the autolysosomes	–	–	–	markedly elevated activity

— patent publication US20160346283A1, “Various Compounds as Autophagy Stimulants” (Velgene 3 Limited, priority 2013, published 2016)
